Patent US8071383B2, “D-amino acid selection for soybean” (BASF Plant Science GmbH, priority 2006, dated 2011)

Key:
Format in all cases: cell-based, Glycine max
[1] = system: non-Agrobacterium infected soybean axillary meristem explants; assay: Killing curve for D-serine toxicity on non-inoculated seedling axillary meristem explants; conditions: 60 mM D-serine in SIM, 4 weeks
Protocol: Killing curves for D-serine toxicity on non-Agrobacterium infected soybean tissues were performed on axillary meristem explants. Thirty explants were prepared as described above in example 1 and cultured on SIM containing either 0 mM, 3 μM, 30 μM, 300 μM, 3 mM, 30 mM, or 60 mM D-serine for a total of 4 weeks. After this time, the percent of explants with new shoot primordia, i.e. appearance of multiple shoots, were counted. In this experiment, a reduction in regeneration occurred between 3 and 30 mM and only 30% regeneration on explants exposed to 60 mM D-serine was seen (FIG. 1).

[2] = system: soybean axillary meristem explants, Dairyland cultivar 98043; assay: Kill curve with D-serine on inoculated axillary meristem explants (shoot induction and elongation)
Protocol: In order to establish an effective level of selection during shoot induction and elongation a broad range of D-Serine concentrations was initially explored. Soybean axillary meristem explants were prepared from 7 day-old-seedlings from the Dairyland cultivar 98043, as described above in Examples 1 and 3.
Agrobacterium rhizogenes strain SHA017 with the Super Vir pSB1 plasmid and containing the binary plasmids pRET017 or pREW008 were prepared as described in example 2. pRET017 contains nosP-c-dsdA/na-nosT and pPcUBI-gusINT-nosT (Example 9). pREW008 contains nosP-bar-nosT and pPcUBI-gusINT-nosT and was used as a control vector (Example 9).
Explants were handled as described above in example 4. After one week on shoot induction medium (SIM) medium with no selection, explants were transferred to SIM medium containing various concentrations of D-serine ranging from 0 to 15 to 30 to 45 mM. All regenerating explants (shoot pads) were transferred to shoot elongation media (SEM) containing 3 mM D-serine after three and six weeks of incubation. Elongating shoots were transferred to rooting medium (RM) medium and screened by GUS expression and Taqman analysis.

[3] = system: soybean primary node explants inoculated with REW008; assay: D-alanine and D-alanine/D-serine killing curves using primary node explants; conditions: Experiment 2, 0 mM D-alanine + 7.5 mM D-serine
Protocol: Kill curves for D-alanine selection with and without 7.5 mM D-serine were conducted for future experiments using dao1 as a selectable marker gene. The combination of using D-alanine and D-serine was also performed for the dao1 gene which can metabolize both D-alanine and D-serine. The binary plasmids RET019 (Pactin-dao1, Pubi-gus) and REW008 (Pnos-bar, Pubi-gus) were used as a positive and a negative control, respectively, and the T-DNA mobilized into soybean using Agrobacterium rhizogenes strain SHA017pSB1.
Explants were inoculated with Agrobacterium, co-cultivated for 5 days, then moved onto shoot induction medium with or without selection for one week. After that time, explants were transferred onto new SIM with selection.
In experiment 1, D-alanine was added to the SIM medium at the following concentrations: 0, 3, 7.5, 10, 20, 30, and 50 mM.
In experiment 2, D-alanine was added in the same concentrations with 7.5 mM D-serine.
The experimental design was as follows: T(treatment)1: 7 explants inoculated with REW008 with 1 week recovery; T2: 7 explants inoculated with REW008 with no recovery; The results of the experiment are shown in Table 2b. […] This drop was not seen on explants with recovery until 20 mM D-alanine. When in combination with D-serine, the explants do have reduced regeneration at lower concentrations, between 7.5 and 10 mM.

In the case of `N[C@H](CO)C(=O)O` [D-serine], the “percent of explants with new shoot primordia (regeneration)” value [1] is reported as 30%, the shoot elongation ([2]; 3 mM D-Ser in SEM, explants coming from 30 or 45 mM D-Ser during shoot induction) is reported as “no shoot elongation” and the “Percent of explants surviving after three weeks in shoot elongation (SEM) + 3 mM D-serine” value (shortened to “Percent … (SEM) + 3 mM D-serine”) ([2]; D-Ser in SIM 0 mM, RET017) is reported as 82.8%. For the same compound, the “Percent … (SEM) + 3 mM D-serine” value ([2]; D-Ser in SIM 0 mM, REW008) was 94.7%, the “Percent … (SEM) + 3 mM D-serine” value ([2]; D-Ser in SIM 15 mM, RET017) was 74.1% and the “Percent … (SEM) + 3 mM D-serine” value ([2]; D-Ser in SIM 15 mM, REW008) was 72.1%. The “Percent of explants regenerating after 3 weeks in shoot induction (SIM) medium” value (from here on “Percent of explants regenerating”) ([2]; D-Ser in SIM 15 mM, explants inoculated with RET017 (nosP-dsdA)) was 78.1%, the “Percent of explants regenerating” value ([2]; D-Ser in SIM 15 mM, explants inoculated with REW008 (control vector)) was 76.9% and the “Percent … (SEM) + 3 mM D-serine” value ([2]; D-Ser in SIM 30 mM, RET017) was 33.6%. For the same compound, the “Percent … (SEM) + 3 mM D-serine” value ([2]; D-Ser in SIM 30 mM, REW008) was 34.5%, the “Percent of explants regenerating” value ([2]; D-Ser in SIM 30 mM, explants inoculated with RET017 (nosP-dsdA)) was 61.2% and the “Percent of explants regenerating” value ([2]; D-Ser in SIM 30 mM, explants inoculated with REW008 (control vector)) was 55.3%. For the same compound, the “Percent … (SEM) + 3 mM D-serine” value ([2]; D-Ser in SIM 45 mM, RET017) was 4.9%, the “Percent … (SEM) + 3 mM D-serine” value ([2]; D-Ser in SIM 45 mM, REW008) was 2.6% and the “Percent of explants regenerating” value ([2]; D-Ser in SIM 45 mM, explants inoculated with RET017 (nosP-dsdA)) was 25.5%. The “Percent of explants regenerating” value ([2]; D-Ser in SIM 45 mM, explants inoculated with REW008 (control vector)) was 21.9%, the shoot elongation ([2]; explants exposed to 15 mM D-Ser during shoot induction) was “Few shoots elongated” and the “D-alanine + 7.5 mM D-serine Kill Curve-regeneration (%) after 3 weeks on SIM” value ([3]; T1: REW008 with 1 week recovery) was 100%. For the same compound, the “D-alanine + 7.5 mM D-serine Kill Curve-regeneration (%) after 3 weeks on SIM” value ([3]; T2: REW008 with no recovery) was 100%.
